Experimental findings from US8829007B2 (priority 2009, dated 2014) are described below.

Where two headings read alike, the source gives them in different places. Where only a bound is given, the exact number is not on record here.

Experiment [1] has as its system A/PR/8/34 influenza virus. Put plainly: microbe, parasite or virus in culture. Format: cell-based.
In experiment [2] the test system is influenza A virus (A/PR/8/34). The experiment can be described thus: microbe, parasite or virus in culture. Format: cell-based.
The mark [3] stands for this setting: Influenza A virus, PR/8, MDCK, MDCK cells infected with A/PR/8/34, replication of influenza virus (viral RNA, bDNA), class symbols, read-out: EC50 (mean all).
Where [4] appears, read: Influenza A virus, PR/8, MDCK, MDCK cells infected with A/PR/8/34, survival of infected cells, class symbols, read-out: IC50 (mean all).
Where [5] appears, read: Influenza A virus, PR/8, mean all, replication of A/PR/8/34 influenza virus (bDNA assay), read-out: EC50.
The mark [6] stands for this setting: Influenza A virus, PR/8, MDCK, mean all, survival of A/PR/8/34 infected MDCK cells (CPE assay), read-out: IC50.
Setting [7] is: Influenza A virus, PR/8, MDCK, MDCK cells infected with A/PR/8/34, bDNA viral RNA, read-out: EC50 (mean all).
Where [8] appears, read: Influenza A virus, PR/8, MDCK, MDCK cells infected with A/PR/8/34, cell protection (CPE), read-out: IC50 (mean all).
Setting [9] is: Influenza A virus, PR/8, MDCK, mean all, A/PR/8/34 influenza virus in MDCK cells, bDNA assay, read-out: EC50.
Setting [10] is: Influenza A virus, PR/8, MDCK, mean all, A/PR/8/34 infected MDCK cells, CPE assay, read-out: IC50.
The mark [11] stands for this setting: Influenza A virus, PR/8, MDCK, bDNA assay, A/PR/8/34 influenza virus replication in MDCK cells, class symbols, read-out: EC50 (mean all).

A word on the EC50: it is the midpoint of the concentration-response curve. By IC50 is commonly meant the concentration that inhibits the measured activity by half. Consider “1-[(1S,2S)-2-[[2-(5-chloro-1H-pyrrolo[2,3-b]pyridin-3-yl)-5-fluoro-pyrimidin-4-yl]amino]cyclohexyl]-3-methyl-urea [Compound 426]”, for which, in experiment [1] (mean all, A/PR/8/34 influenza virus in MDCK cells, bDNA assay, read-out: EC50), the EC50 was less than 5 µM. For the same compound, the IC50 in experiment [2] (read-out: IC50) is less than 5 µM. `O=C(O)[C@H]1CCCC[C@@H]1Nc1nc(-c2c[nH]c3ncc(Cl)cc23)ncc1F` (racemic) [Compound 541, Trans-2-(2-(5-chloro-1H-pyrrolo[2,3-b]pyridin-3-yl)-5-fluoropyrimidin-4-ylamino)cyclohexanecarboxylic acid]: the concentration giving a half-maximal response (EC50) in experiment [1] (setting [3]) was less than 5 µM. Further, the IC50 in experiment [2] (setting [4]) was less than 5 µM. As to `N[C@@H]1CCCC[C@H]1CNc1nc(-c2c[nH]c3ncc(Cl)cc23)ncc1F` (racemic) [Compound 555, N-((trans-2-aminocyclohexyl)methyl)-2-(5-chloro-1H-pyrrolo[2,3-b]pyridin-3-yl)-5-fluoropyrimidin-4-amine], the EC50 in experiment [1] (setting [3]) was less than 5 µM. For the same compound, the IC50 in experiment [2] (setting [4]) was greater than 10 µM.

`O=C(O)[C@H]1[C@@H]2CC[C@@H](C2)[C@@H]1Nc1nc(-c2c[nH]c3ncc(Cl)cc23)ncc1F` (racemic) [Compound 946]: in experiment [1] (setting [5]), the EC50 was less than 5 µM. The concentration for half-maximal inhibition (IC50) in experiment [2] (setting [6]) was less than 5 µM. For `O=C(O)[C@H]1C(Nc2nc(-c3c[nH]c4ncc(Cl)cc34)ncc2F)[C@H]2CC[C@@H]1C2` (mixture of isomers) [Compound 947], the half-maximal effective concentration (EC50) in experiment [1] (setting [5]) is less than 5 µM. In addition, in experiment [2] (setting [6]), the IC50 was less than 5 µM. With `O[C@@H]1CCCC[C@H]1Nc1nc(-c2c[nH]c3ncccc23)ncc1F` (relative stereo) [Compound 207, Trans-2-[[5-fluoro-2-(1H-pyrrolo[2,3-b]pyridin-3-yl)pyrimidin-4-yl]amino]cyclohexanol], in experiment [1] (setting [7]), the EC50 was less than 5 µM. Further, in experiment [2] (setting [8]), the IC50 was less than 5 µM. Consider `O[C@@H]1CCCC[C@@H]1Nc1nc(-c2c[nH]c3ncccc23)ncc1F` (relative stereo) [Compound 277, Cis-2-[[5-fluoro-2-(1H-pyrrolo[2,3-b]pyridin-3-yl)pyrimidin-4-yl]amino]cyclohexanol], for which the EC50 in experiment [1] (setting [7]) is less than 5 µM. In addition, the IC50 in experiment [2] (setting [8]) is less than 5 µM. For `CC(=O)N[C@H]1CCC[C@@H](Nc2nc(-c3c[nH]c4ncc(Cl)cc34)ncc2F)C1` (relative stereo) [Compound 452, N-[cis-3-[[2-(5-chloro-1H-pyrrolo[2,3-b]pyridin-3-yl)-5-fluoropyrimidin-4-yl]amino]cyclohexyl]acetamide], in experiment [1] (setting [9]), the EC50 was less than 5 µM. Also, the 50% inhibitory concentration (IC50) in experiment [2] (setting [10]) is less than 5 µM. `CNC(=O)N[C@H]1CCC[C@@H](Nc2nc(-c3c[nH]c4ncc(Cl)cc34)ncc2F)C1` (relative stereo) [Compound 455, 1-[cis-3-[[2-(5-chloro-1H-pyrrolo[2,3-b]pyridin-3-yl)-5-fluoro-pyrimidin-4-yl]amino]cyclohexyl]-3-methyl-urea]: in experiment [1] (setting [9]), the EC50 is less than 5 µM. Besides, the IC50 in experiment [2] (setting [10]) was less than 5 µM.

For the compound `CN(C)C(=O)N[C@H]1CCC[C@@H](Nc2nc(-c3c[nH]c4ncc(Cl)cc34)ncc2F)C1` (relative stereo) [Compound 456, 3-[cis-3-[[2-(5-chloro-1H-pyrrolo[2,3-b]pyridin-3-yl)-5-fluoro-pyrimidin-4-yl]amino]cyclohexyl]-1,1-dimethyl-urea], the EC50 in experiment [1] (setting [9]) is less than 5 µM. Also, the IC50 in experiment [2] (setting [10]) is less than 5 µM. Regarding `CC(=O)N[C@H]1CCC[C@H](Nc2nc(-c3c[nH]c4ncc(Cl)cc34)ncc2F)C1.CC(N)=O` (relative stereo) [Compound 457, N-[trans-3-[[2-(5-chloro-1H-pyrrolo[2,3-b]pyridin-3-yl)-5-fluoro-pyrimidin-4-yl]amino]cyclohexyl]acetamide acetamide], the EC50 in experiment [1] (setting [9]) was less than 5 µM. The IC50 in experiment [2] (setting [10]) is less than 5 µM.

As to `CNC(=O)N[C@H]1CCC[C@H](Nc2nc(-c3c[nH]c4ncc(Cl)cc34)ncc2F)C1` (relative stereo) [Compound 458, 1-[trans-3-[[2-(5-chloro-1H-pyrrolo[2,3-b]pyridin-3-yl)-5-fluoro-pyrimidin-4-yl]amino]cyclohexyl]-3-methyl-urea], the EC50 in experiment [1] (setting [9]) is less than 5 µM. The IC50 in experiment [2] (setting [10]) was less than 5 µM. As to `CN(C)C(=O)N[C@H]1CCC[C@H](Nc2nc(-c3c[nH]c4ncc(Cl)cc34)ncc2F)C1` (relative stereo) [Compound 459, 3-[trans-3-[[2-(5-chloro-1H-pyrrolo[2,3-b]pyridin-3-yl)-5-fluoro-pyrimidin-4-yl]amino]cyclohexyl]-1,1-dimethyl-urea], the EC50 in experiment [1] (setting [9]) was less than 5 µM. Also, in experiment [2] (setting [10]), the IC50 was less than 5 µM.

`CNC(=O)[C@@H]1CCCC[C@@H]1Nc1nc(-c2c[nH]c3ncc(Cl)cc23)ncc1F` (relative stereo) [Compound 539, Cis-2-(2-(5-chloro-1H-pyrrolo[2,3-b]pyridin-3-yl)-5-fluoropyrimidin-4-ylamino)-N-methylcyclohexanecarboxamide]: the EC50 in experiment [1] (setting [3]) was less than 5 µM. Besides, the IC50 in experiment [2] (setting [4]) was 5 to 20 µM. Regarding `CN(C)C(=O)[C@@H]1CCCC[C@@H]1Nc1nc(-c2c[nH]c3ncc(Cl)cc23)ncc1F` (relative stereo) [Compound 543, Cis-2-(2-(5-chloro-1H-pyrrolo[2,3-b]pyridin-3-yl)-5-fluoropyrimidin-4-ylamino)-N,N-dimethylcyclohexanecarboxamide], in experiment [1] (setting [3]), the EC50 is less than 5 µM. Also, the IC50 in experiment [2] (setting [4]) was less than 5 µM. Consider `NC(=O)[C@@H]1CCCC[C@@H]1Nc1nc(-c2c[nH]c3ncc(Cl)cc23)ncc1F` (relative stereo) [Compound 544, cis-2-(2-(5-chloro-1H-pyrrolo[2,3-b]pyridin-3-yl)-5-fluoropyrimidin-4-ylamino)cyclohexanecarboxamide], for which the EC50 in experiment [1] (setting [3]) was less than 5 µM. Moreover, the IC50 in experiment [2] (setting [4]) was greater than 20 µM. As to `O=C(O)[C@@H]1CCCC[C@@H]1Nc1nc(-c2c[nH]c3ncc(Cl)cc23)ncc1F` (relative stereo) [Compound 554], in experiment [1] ([…], replication of influenza virus (viral RNA, bDNA), class symbols, read-out: EC50 (mean all)), the EC50 lay within 5 to 10 µM. Also, the IC50 in experiment [2] (read-out: IC50 (mean all)) was greater than 10 µM.

Take `COCC(=O)N[C@@H]1CCCC[C@H]1CNc1nc(-c2c[nH]c3ncc(Cl)cc23)ncc1F` (relative stereo) [Compound 556, N-(trans-2-((2-(5-chloro-1H-pyrrolo[2,3-b]pyridin-3-yl)-5-fluoropyrimidin-4-ylamino)methyl)cyclohexyl)-2-methoxyethanamide]: the EC50 in experiment [1] (setting [3]) is less than 5 µM. Further, in experiment [2] (setting [4]), the IC50 was greater than 10 µM. For `O=C(O)[C@@H]1CCC[C@@H]1Nc1nc(-c2c[nH]c3ncc(Cl)cc23)ncc1F` (relative stereo) [Compound 558, Cis-2-(2-(5-chloro-1H-pyrrolo[2,3-b]pyridin-3-yl)-5-fluoropyrimidin-4-ylamino)cyclopentanecarboxylic acid], the EC50 in experiment [1] (setting [3]) is less than 5 µM. For the same compound, the IC50 in experiment [2] (setting [4]) is less than 5 µM. `Fc1cnc(-c2c[nH]c3ncc(Cl)cc23)nc1N[C@H]1CCCN(Cc2ncc[nH]2)C1` [Compound 589, (S)—N-(1-((1H-imidazol-2-yl)methyl)piperidin-3-yl)-2-(5-chloro-1H-pyrrolo[2,3-b]pyridin-3-yl)-5-fluoropyrimidin-4-amine]: the EC50 in experiment [1] (setting [3]) is less than 5 µM. With `CC(C)(C(=O)O)N1CCC[C@H](Nc2nc(-c3c[nH]c4ncc(Cl)cc34)ncc2F)C1` [Compound 590], in experiment [1] (setting [3]), the EC50 was greater than 3.3 µM. Turning to `COCCOC(=O)N[C@@H]1CCC[C@H](Nc2nc(-c3c[nH]c4ncc(Cl)cc34)ncc2F)C1` [Compound 592, 2-methoxyethyl N-[(1R,3S)-3-[[2-(5-chloro-1H-pyrrolo[2,3-b]pyridin-3-yl)-5-fluoro-pyrimidin-4-yl]amino]cyclohexyl]carbamate], the EC50 in experiment [1] (setting [3]) is less than 5 µM.

For the compound `NC(=O)CN[C@@H]1CCC[C@H](Nc2nc(-c3c[nH]c4ncc(Cl)cc34)ncc2F)C1` [Compound 593], the EC50 in experiment [1] (setting [3]) is less than 5 µM.

As to `N#CCCCN1CCC[C@@H](CNc2nc(-c3c[nH]c4ncc(Cl)cc34)ncc2F)C1` [Compound 666, (S)-4-(3-((2-(5-chloro-1H-pyrrolo[2,3-b]pyridin-3-yl)-5-fluoropyrimidin-4-ylamino)methyl)piperidin-1-yl)butanenitrile], the concentration for a half-maximal effect (EC50) in experiment [1] (setting [11]) is greater than 10 µM. `N#CCCN1CCC[C@@H](CNc2nc(-c3c[nH]c4ncc(Cl)cc34)ncc2F)C1` [Compound 667, (S)-3-(3-((2-(5-chloro-1H-pyrrolo[2,3-b]pyridin-3-yl)-5-fluoropyrimidin-4-ylamino)methyl)piperidin-1-yl)propanenitrile]: the EC50 in experiment [1] (setting [11]) is greater than 10 µM. The same measure, in the same setting: the figure for `Fc1cnc(-c2c[nH]c3ncc(Cl)cc23)nc1N[C@H]1CCCN(CC(F)(F)F)C1` [Compound 668, (S)-2-(5-chloro-1H-pyrrolo[2,3-b]pyridin-3-yl)-5-fluoro-N-(1-(2,2,2-trifluoroethyl)piperidin-3-yl)pyrimidin-4-amine] is less than 5 µM.

For the compound `NC(=O)[C@@H]1CCC[C@H](Nc2nc(-c3c[nH]c4ncc(Cl)cc34)ncc2F)C1` [Compound 847], the EC50 in experiment [1] (mean all, A/PR/8/34 influenza virus replication, bDNA, read-out: EC50) was less than 5 µM. Turning to `C[C@@]1(C(N)=O)CCC[C@H](Nc2nc(-c3c[nH]c4ncc(Cl)cc34)ncc2F)C1` [Compound 924, (1R,3S)-3-[[2-(5-chloro-1H-pyrrolo[2,3-b]pyridin-3-yl)-5-fluoro-pyrimidin-4-yl]amino]-1-methyl-cyclohexanecarboxamide], the EC50 in experiment [1] (setting [5]) is less than 5 µM. The same measure, in the same setting: then `C[C@@]1(NC(=O)N2CCCC2)CCCC(Nc2nc(-c3c[nH]c4ncc(Cl)cc34)ncc2F)C1` (stereo partly drawn) [Compound 926], with less than 5 µM.
